Experimental data as given in US20230321094A1, “COMBINATION THERAPIES WITH OLIG2 INHIBITORS” (Curtana Pharmaceuticals, Inc., priority 2020, published 2023).

Test system: NX18 cells
Experiment: Glioblastoma neurosphere cell viability with the test compound and an mTOR inhibitor, Cell TiterGlo
Type: cell-based
Details: NX18 neurospheres, 72 hours, normalized to DMSO vehicle; for cytotoxicity at 0.01 µM: mTOR inhibitor alone, final concentration 10 nM, read-out: percent inhibition of cell viability, mTOR inhibitor alone; for percent inhibition of cell viability, Combined: named mTOR inhibitor (10 nM) combined with test compound @ 3 μM
Description: After another 72 hours, cell viability was determined using the Cell TiterGlo kit (#G7570, Promega, Madison. WI) following the manufacturer's instructions on a Tecan M200 Pro Plate Reader (Tecan, Mannedorf, CH). Percent viable cells were normalized against vehicle control (DMSO set as 100%).

Structure (SMILES)	cytotoxicity at 0.01 µM [%]	percent inhibition of cell viability, Combined [%]	cytotoxicity at 3 µM (test compound alone at 3 μM, read-out: percent inhibition of cell viability, Test compound @ 3 μM) [%]
CO[C@H]1C[C@@H]2CC[C@@H](C)[C@@](O)(O2)C(=O)C(=O)N2CCCC[C@H]2C(=O)O[C@H]([C@H](C)C[C@@H]2CC[C@@H](OCCO)[C@H](OC)C2)CC(=O)[C@H](C)/C=C(\C)[C@@H](O)[C@@H](OC)C(=O)[C@H](C)C[C@H](C)/C=C/C=C/C=C/1C [Everolimus]	45	60	–
CO[C@H]1C[C@@H]2CC[C@@H](C)[C@@](O)(O2)C(=O)C(=O)N2CCCC[C@H]2C(=O)O[C@H]([C@H](C)C[C@@H]2CC[C@@H](O)[C@H](OC)C2)CC(=O)[C@H](C)/C=C(\C)[C@@H](O)[C@@H](OC)C(=O)[C@H](C)C[C@H](C)/C=C/C=C/C=C/1C [Rapamycin]	41	61	–
Cc1cc(NCCCN(C)C)nc(NC(=O)Nc2ccc(Cl)c(Cl)c2)n1 [Test compound]	–	–	30
